Here are results for three compounds from patent US8945359B2, “Flavin-binding glucose dehydrogenase” (Ikeda Food Research Co., Ltd., priority 2011, dated 2015).

Where two headings read alike, the source gives them in different places.

In data set [1] the test system is OC[C@H]1OC(O)[C@H](O)[C@@H](O)[C@@H]1O. Description: purified protein, by the assay type. Conditions: other: BotGLD, D-glucose varied, Hanes-Woolf plot, DCIP/1-m-PMS, pH 6.0, 37° C.
Description: (§3) Each solution was mixed according to the following procedures to measure the absorbance, thereby examining GLD activity.
(§4) Then, 0.05 mL of an enzyme sample was added to the mixture to start a reaction. The amount (ΔA600) of reduction in light absorbance per minute at 600 nm along with the progress of the enzymatic reaction was measured for 5 minutes from the start of the reaction to calculate GLD activity from the straight line part according to the equation 1. At this time, in the measurement of GLD activity, the amount of an enzyme reducing 1 μmol of DCIP at 37° C. and a pH of 6.0 for one minute was defined as 1 U.
(§5) In the above formula, 3.0 represents the amount (mL) of reaction reagent+oxygen solution, 10.8 represents the molar absorption coefficient (mM^−1 cm^−1) of DCIP at a pH of 6.0, 1.0 represents the optical path length (cm) of a cell, 0.05 represents the amount (mL) of the oxygen solution, ΔA600 blank represents a reduction in the amount of light absorbance per minute at 600 nm when the solution used to dilute the enzyme is added in place of the enzyme solution to start a reaction, and df represents a dilution ratio.
For data set [2], the target named is T1, Botrytis tulipae NBRC5896 flavin-binding glucose dehydrogenase BotGLD (E), purified from A. oryzae NS4 with BotGLD-Atsig modified gene, SEQ ID NO: 4 (without signal sequence SEQ ID NO: 12) (Botrytis tulipae, UniProt A0A4Z1FFJ6).
T1 construct: up to three extra N-terminal residues possible
Description: Inhibitive effect of 1,10-phenanthroline, BotGLD. The class given is biochemical. On the procedure: (§1) The enzymatic activity of each of the purified GLDs (A) to (F) was measured when 1,10-phenanethroline dissolved in methanol was added such that its final concentration was 2 mM, 5 mM or 10 mM in the above method for measuring enzymatic activity. The inhibitive effect obtained when only methanol was added was defined as 0% to find the inhibitive effect of 1,10-phenanthroline at each concentration. The obtained results are shown collectively as the inhibitive effect of 1,10-phenanthroline in Table 4.

For data set [3], the system named is Ciborinia camelliae NBRC103663 flavin-binding glucose dehydrogenase CiGLD (F), purified from A. oryzae NS4 with CiGLD-Atsig modified gene, SEQ ID NO: …. In words: Inhibitive effect of 1,10-phenanthroline, CiGLD. The class given is biochemical. To be noted: methanol only = 0%. The protocol: as §1
In data set [4] the test system is Ovulinia azaleae NBRC6610 flavin-binding glucose dehydrogenase OvGLD (B), purified, wild type, SEQ ID NO: 6 (without signal sequence SEQ ID NO: 14). Description: Inhibitive effect of 1,10-phenanthroline, OvGLD. It is filed as biochemical. To be noted: methanol only = 0%. The protocol:
as §1

The test system of data set [5] is Dumontinia tuberosa NBRC30254 flavin-binding glucose dehydrogenase DuGLD (A), purified, wild type, SEQ ID NO: 2 (without signal sequence SEQ ID NO: 10). Description: Inhibitive effect of 1,10-phenanthroline, DuGLD. The class given is biochemical. To be noted: methanol only = 0%. On the procedure: as §1
The test system of data set [6] is Botrytis fabae NBRC7171 flavin-binding glucose dehydrogenase BoGLD (D), purified, wild type. Description: Inhibitive effect of 1,10-phenanthroline, BoGLD. The class given is biochemical. To be noted: methanol only = 0%. On the procedure:
as §1

Data set [7] deals with Sclerotinia sclerotiorum NBRC103652 flavin-binding glucose dehydrogenase ScGLD (C), purified, wild type. In words: Inhibitive effect of 1,10-phenanthroline, ScGLD. Conditions: methanol only = 0%. It is filed as biochemical. The protocol:
(§2) After the column was washed with the buffer solution C2, a protein was eluted with linear gradient of a buffer solution D3 (500 mM potassium phosphate buffer solution, pH 7.0) in the buffer solution C2.
as §1

The subject of data set [8] is Ciborinia camelliae NBRC103663 flavin-binding glucose dehydrogenase CiGLD (F), purified from A. oryzae NS4 with CiGLD-Atsig modified gene, SEQ ID NO: …. Conditions: read-out: Km value, D-glucose varied, Hanes-Woolf plot, DCIP/1-m-PMS, pH 6.0, 37° C.
Description: as §3, §4, §5
Among the eluted protein, an active fraction was concentrated and desalted to obtain a purified enzyme of GLD derived from the genus Ciborinia substituted with water.
Data set [9] concerns Botrytis fabae NBRC7171 flavin-binding glucose dehydrogenase BoGLD (D), purified, wild type. To be noted: read-out: Km value, D-glucose varied, Hanes-Woolf plot, DCIP/1-m-PMS, pH 6.0, 37° C. An excerpt:
The transmitted active fraction was combined with the active fraction eluted after adsorbed and these fractions were concentrated and dialyzed against the buffer solution C3.

Data set [10] deals with Sclerotinia sclerotiorum NBRC103652 flavin-binding glucose dehydrogenase ScGLD (C), purified, wild type. Description: Km value to D-glucose (Hanes-Woolf plot), ScGLD. The class given is biochemical. To be noted: D-glucose varied, DCIP/1-m-PMS, pH 6.0, 37° C. On the procedure: as §2
The subject of data set [11] is Ovulinia azaleae NBRC6610 flavin-binding glucose dehydrogenase OvGLD (B), purified, wild type, SEQ ID NO: 6 (without signal sequence SEQ ID NO: 14). Conditions: read-out: Km value, D-glucose varied, Hanes-Woolf plot, DCIP/1-m-PMS, pH 6.0, 37° C.
Description: as §3, §4, §5

T1 sequence (A0A4Z1FFJ6 17-589, added parts left off): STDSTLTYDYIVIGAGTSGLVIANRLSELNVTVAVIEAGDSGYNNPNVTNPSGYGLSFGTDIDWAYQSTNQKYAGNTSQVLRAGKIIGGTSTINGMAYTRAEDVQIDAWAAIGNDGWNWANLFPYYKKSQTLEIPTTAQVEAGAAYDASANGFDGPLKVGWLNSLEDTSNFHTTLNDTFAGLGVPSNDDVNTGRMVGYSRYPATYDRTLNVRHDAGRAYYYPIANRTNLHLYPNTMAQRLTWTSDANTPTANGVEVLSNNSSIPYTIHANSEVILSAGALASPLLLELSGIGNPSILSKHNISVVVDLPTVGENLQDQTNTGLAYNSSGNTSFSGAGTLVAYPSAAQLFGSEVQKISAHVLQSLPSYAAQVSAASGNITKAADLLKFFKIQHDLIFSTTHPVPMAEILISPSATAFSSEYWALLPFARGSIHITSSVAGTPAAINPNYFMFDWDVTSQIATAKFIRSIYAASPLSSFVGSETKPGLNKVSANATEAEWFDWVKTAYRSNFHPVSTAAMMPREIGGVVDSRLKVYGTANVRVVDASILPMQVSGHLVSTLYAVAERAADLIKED

Consider “Botrytis tulipae NBRC5896 flavin-binding glucose dehydrogenase BotGLD (E), purified from A. oryzae NS4 with BotGLD-Atsig modified gene, SEQ ID NO: 4 (without signal sequence SEQ ID NO: 12) (Botrytis tulipae)”, for which, in data set [1], the Km was 36.2 mM.
As for `c1cnc2c(c1)ccc1cccnc12` [1,10-phenanthroline], the inhibition at 2000 µM is 33.5% in data set [2] (BotGLD, final concentration 2 mM, methanol only = 0%, read-out: Inhibitive effect); 20 to 34% in data set [2] (DuGLD, OvGLD and BotGLD together, 2 mM, read-out: Inhibitive effect (summary range)). The inhibition at 5000 µM in data set [2] (BotGLD, final concentration 5 mM, methanol only = 0%) is 38.6%. In data set [2] (BotGLD, final concentration 10 mM, methanol only = 0%), the inhibition at 10000 µM came to 75.4%. In addition, the Inhibitive effect is on record as 6.34% in data set [3] (final concentration 2 mM); 14.7% in data set [3] (final concentration 5 mM); 32.7% in data set [3] (final concentration 10 mM); 34.1% in data set [4] (final concentration 2 mM); 51.7% in [4] (final concentration 5 mM); 65.1% in [4] (final concentration 10 mM). The Inhibitive effect in [5] (final concentration 2 mM) was 20.4%; in data set [5] (final concentration 5 mM), 30.1%; in data set [5] (final concentration 10 mM) it was 42.3%; in data set [6] (final concentration 2 mM) it was 10.4%; in data set [6] (final concentration 5 mM), 15.9%; in data set [6] (final concentration 10 mM), 28.5%. Moreover, the Inhibitive effect in [7] (final concentration 2 mM) was 5.28%; in data set [7] (final concentration 5 mM) it was 18.4%; in data set [7] (final concentration 10 mM) it was 32.3%.
For `OC[C@H]1OC(O)[C@H](O)[C@@H](O)[C@@H]1O` (stereo partly drawn) [D-glucose], the Km came to 5.44 mM in data set [8], 35 mM in data set [9], 16.7 mM in data set [10] and 22.8 mM in data set [11].
